For 25 molecules, Ki results are on record in patent US7250442B2, “Dihydroindol-2-one derivatives as steroid hormone nuclear receptor modulators” (Eli Lilly and Company, priority 2003, dated 2007).

Each structure is given as a SMILES string.

This assay concerns the target T1, glucocorticoid receptor (Homo sapiens, UniProt P04150).
T1 construct: host or cells: A549 human lung epithelial cells (sonicated cell extract)
T1 sequence (P04150 1-777): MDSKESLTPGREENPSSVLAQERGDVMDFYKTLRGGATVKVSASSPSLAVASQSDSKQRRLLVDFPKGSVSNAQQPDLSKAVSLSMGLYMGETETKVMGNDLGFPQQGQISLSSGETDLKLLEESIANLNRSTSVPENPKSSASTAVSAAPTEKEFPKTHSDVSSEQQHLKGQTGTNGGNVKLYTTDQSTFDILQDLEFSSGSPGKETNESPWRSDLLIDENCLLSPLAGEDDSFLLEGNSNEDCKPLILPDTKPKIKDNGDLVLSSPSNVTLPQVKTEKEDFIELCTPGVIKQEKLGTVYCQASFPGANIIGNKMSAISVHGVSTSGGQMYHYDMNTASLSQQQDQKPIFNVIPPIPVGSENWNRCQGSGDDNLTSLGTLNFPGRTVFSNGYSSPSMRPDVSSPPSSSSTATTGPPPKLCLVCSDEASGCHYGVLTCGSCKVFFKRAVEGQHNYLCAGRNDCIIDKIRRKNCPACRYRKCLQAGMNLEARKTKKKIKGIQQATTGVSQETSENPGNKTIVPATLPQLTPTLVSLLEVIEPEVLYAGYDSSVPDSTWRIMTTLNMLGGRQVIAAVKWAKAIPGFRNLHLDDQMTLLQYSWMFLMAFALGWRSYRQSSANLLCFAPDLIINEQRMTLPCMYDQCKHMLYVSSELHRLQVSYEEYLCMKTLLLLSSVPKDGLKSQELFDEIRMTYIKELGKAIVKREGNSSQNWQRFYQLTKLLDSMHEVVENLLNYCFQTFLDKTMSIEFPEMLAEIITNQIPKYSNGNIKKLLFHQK
Description: Glucocorticoid Receptor Binding Assay ([3H]-dexamethasone displacement, A549 cell extract). The conditions noted are these: A549 human lung epithelial cell extract, 1.86 nM [3H]-dexamethasone; read-out: GR Ki. As to the method:
Glucocorticoid Receptor Binding Assay:
A549 human lung epithelial cells (ATCC) are grown at a scale where gram quantity cell pellets are obtained. Harvested cell pellets are washed twice in cold phosphate buffered saline, centrifuged, and resuspended in cold assay binding buffer. The assay binding buffer consists of 10% glycerol, 50 mM Tris-HCl (pH7.2), 75 mM sodium chloride, 1.5 mM magnesium chloride, 1.5 mM EDTA, and 10 mM sodium molybdate. Cell suspensions were lysed via sonication, centrifuged, and the “extract” supernatant is snap frozen and stored at −80C. until needed.
GR binding assays are performed in a final volume of 140 ul containing 50-200 ug of A549 cell extract and 1.86 nM [^3H]-dexamethasone (Amersham) plus varying concentrations of test compound or vehicle. Briefly, assays are prepared at RT in 96-well Fisher 3356 plates, each well containing 100 ul of A549 cell extract, 20 ul of [^3H]-dexamethasone, and 20 ul of test compound/vehicle. Incubations are carried out at 4 degrees celsius for 16 hours. After incubation, 70 ul of 3× dextran-coated charcoal solution is added to each reaction, mixed, and incubated for 8 minutes at RT. 3×-dextran-coated charcoal solution consists of 250 ml assay binding buffer, 3.75 g Norit A charcoal (Sigma), and 1.25 g dextran T-70 (Amersham). Charcoal/unbound radioligand complexes are removed by centrifugation of the plate and 140 ul of supernatant from each well is transferred to another 96 well Optiplate (Packard Instruments). 200 ul of Microscint-20 scinillant (Packard Instruments) is added to each well and amount of receptor bound radioligand is determined using Packard Instruments TopCount instrument.
IC50 values, defined as the concentration of test compound required to decrease [^3H]-dexamethasone binding by 50%, are then determined. Ki values for each respective test compound can then be calculated by application of the Cheng-Prusoff equation as described in Cheng et al., Relationship Between The Inhibition Constant (Ki) and The Concentration of Inhibitor Which Causes 50% Inhibition (IC50) of an Enzymatic Reaction, Biochem. Pharmacol., 22: 3099-31088; (1973).

For the molecule `Cc1ccc2c(c1)C(c1cc(C)c(O)c(C)c1)(c1cc(C)c(O)c(C)c1)C(=O)N2Cc1ccccc1C` [Example 21, 3,3-Bis-(4-hydroxy-3,5-dimethyl-phenyl)-5-methyl-1-(2-methyl-benzyl)-1,3-dihydro-indol-2-one], the Ki (as a rule, the dissociation constant of the complex between target and ligand, obtained from inhibition or displacement) was not above 500 nM.

On to `Cc1ccc2c(c1)C(c1cc(C)c(O)c(C)c1)(c1cc(C)c(O)c(C)c1)C(=O)N2Cc1ccccc1Cl` [Example 22, 1-(2-Chloro-benzyl)-3,3-bis-(4-hydroxy-3,5-dimethyl-phenyl)-5-methyl-1,3-dihydro-indol-2-one], for which the Ki was not above 500 nM.

Turning to `Cc1ccc2c(c1)C(c1cc(C)c(O)c(C)c1)(c1cc(C)c(O)c(C)c1)C(=O)N2Cc1ccccc1C#N` [Example 23, 2-[3,3-Bis-(4-hydroxy-3,5-dimethyl-phenyl)-5-methyl-2-oxo-2,3-dihydro-indol-1-ylmethyl]-benzonitrile], the Ki was not above 500 nM.

For `Cc1cc(C2(c3cc(C)c(O)c(C)c3)C(=O)N(Cc3ccccc3Cl)c3c(C)cccc32)cc(C)c1O` [Example 24, 1-(2-Chloro-benzyl)-3,3-bis-(4-hydroxy-3,5-dimethyl-phenyl)-7-methyl-1,3-dihydro-indol-2-one], the Ki is not above 1000 nM.

Regarding `CCc1cccc2c1N(Cc1ccccc1Cl)C(=O)C2(c1cc(C)c(O)c(C)c1)c1cc(C)c(O)c(C)c1` [Example 25, 1-(2-Chloro-benzyl)-7-ethyl-3,3-bis-(4-hydroxy-3,5-dimethyl-phenyl)-1,3-dihydro-indol-2-one], the Ki is not above 1000 nM.

For the molecule `Cc1cc(C2(c3cc(C)c(O)c(C)c3)C(=O)N(Cc3ccccc3Cl)c3cccc(Cl)c32)cc(C)c1O` [Example 26, 4-Chloro-1-(2-chloro-benzyl)-3,3-bis-(4-hydroxy-3,5-dimethyl-phenyl)-1,3-dihydro-indol-2-one], the Ki is not above 500 nM.

As to `Cc1cc(C2(c3cc(C)c(O)c(C)c3)C(=O)N(Cc3ccccc3Cl)c3ccccc32)cc(C)c1N` (stereo not shown) [Example 35, 3-(4-Amino-3,5-dimethyl-phenyl)-1-(2-chloro-benzyl)-3-(4-hydroxy-3,5-dimethyl-phenyl)-1,3-dihydro-indol-2-one], the Ki was not above 500 nM.

`Cc1cc(C2(c3ccc(O)cc3)C(=O)N(Cc3ccccc3Cl)c3ccccc32)cc(C)c1O` (stereo not shown) [Example 36, 1-(2-Chloro-benzyl)-3-(4-hydroxy-3,5-dimethyl-phenyl)-3-(4-hydroxy-phenyl)-1,3-dihydro-indol-2-one]: the Ki is not above 500 nM.

For the molecule `Cc1cc(C2(c3cc(C)c(O)c(C)c3)C(=O)N(Cc3ccc(F)cc3F)c3ccccc32)cc(C)c1O` [Example 43, 1-(2,4-Difluoro-benzyl)-3,3-bis-(4-hydroxy-3,5-dimethyl-phenyl)-1,3-dihydro-indol-2-one], the Ki was not above 500 nM.

Take `Cc1cc(C2(c3cc(C)c(O)c(C)c3)C(=O)N(Cc3ccccc3F)c3ccccc32)cc(C)c1O` [Example 50, 1-(2-Fluoro-benzyl)-3,3-bis-(4-hydroxy-3,5-dimethyl-phenyl)-1,3-dihydro-indol-2-one]: the Ki was not above 500 nM.

`Cc1cc(C2(c3cc(C)c(O)c(C)c3)C(=O)N(Cc3ccccc3C(F)(F)F)c3ccccc32)cc(C)c1O` [Example 53, 3,3-Bis-(4-hydroxy-3,5-dimethyl-phenyl)-1-(2-trifluoromethyl-benzyl)-1,3-dihydro-indol-2-one]: the Ki was not above 1000 nM.

In the case of `Cc1cc(C2(c3cc(C)c(O)c(C)c3)C(=O)N(Cc3ccccc3-c3ccccc3)c3ccccc32)cc(C)c1O` [Example 54, 1-Biphenyl-2-ylmethyl-3,3-bis-(4-hydroxy-3,5-dimethyl-phenyl)-1,3-dihydro-indol-2-one], the Ki is not above 1000 nM.

As to `COc1cccc(CN2C(=O)C(c3cc(C)c(O)c(C)c3)(c3cc(C)c(O)c(C)c3)c3ccccc32)c1` [Example 56, 3,3-Bis-(4-hydroxy-3,5-dimethyl-phenyl)-1-(3-methoxy-benzyl)-1,3-dihydro-indol-2-one], the Ki was not above 500 nM.

Regarding `Cc1cc(C2(c3cc(C)c(O)c(C)c3)C(=O)N(Cc3ccc(Br)cc3)c3ccccc32)cc(C)c1O` [Example 58, 1-(4-Bromo-benzyl)-3,3-bis-(4-hydroxy-3,5-dimethyl-phenyl)-1,3-dihydro-indol-2-one], the Ki was not above 500 nM.

Take `Cc1cc(C2(c3cc(C)c(O)c(C)c3)C(=O)N(Cc3ccc([N+](=O)[O-])cc3)c3ccccc32)cc(C)c1O` [Example 62, 3,3-Bis-(4-hydroxy-3,5-dimethyl-phenyl)-1-(4-nitro-benzyl)-1,3-dihydro-indol-2-one]: the Ki is not above 500 nM.

As for `Cc1cc(C2(c3cc(C)c(O)c(C)c3)C(=O)N(Cc3ccccc3Br)c3ccccc32)cc(C)c1O` [Example 63, 1-(2-Bromo-benzyl)-3,3-bis-(4-hydroxy-3,5-dimethyl-phenyl)-1,3-dihydro-indol-2-one], the Ki was not above 500 nM.

For `Cc1cc(C2(c3cc(C)c(O)c(C)c3)C(=O)N(Cc3cccc(Br)c3)c3ccccc32)cc(C)c1O` [Example 64, 1-(3-Bromo-benzyl)-3,3-bis-(4-hydroxy-3,5-dimethyl-phenyl)-1,3-dihydro-indol-2-one], the Ki is not above 500 nM.

As for `Cc1cc(C2(c3cc(C)c(O)c(C)c3)C(=O)N(Cc3ccccc3[N+](=O)[O-])c3ccccc32)cc(C)c1O` [Example 65, 3,3-Bis-(4-hydroxy-3,5-dimethyl-phenyl)-1-(2-nitro-benzyl)-1,3-dihydro-indol-2-one], the Ki is not above 500 nM.

In the case of `Cc1cc(C2(c3cc(C)c(O)c(C)c3)C(=O)N(Cc3cccc(F)c3F)c3ccccc32)cc(C)c1O` [Example 66, 1-(2,3-Difluoro-benzyl)-3,3-bis-(4-hydroxy-3,5-dimethyl-phenyl)-1,3-dihydro-indol-2-one], the Ki was not above 500 nM.

Take `Cc1cc(C2(c3cc(C)c(O)c(C)c3)C(=O)N(Cc3ccc(OC(F)(F)F)cc3)c3ccccc32)cc(C)c1O` [Example 67, 3,3-Bis-(4-hydroxy-3,5-dimethyl-phenyl)-1-(4-trifluoromethoxy-benzyl)-1,3-dihydro-indol-2-one]: the Ki is not above 500 nM.

On to `Cc1cc(C2(c3cc(C)c(O)c(C)c3)C(=O)N(Cc3ccc(C(F)(F)F)cc3C(F)(F)F)c3ccccc32)cc(C)c1O` [Example 68, 1-(2,4-Bis-trifluoromethyl-benzyl)-3,3-bis-(4-hydroxy-3,5-dimethyl-phenyl)-1,3-dihydro-indol-2-one], for which the Ki was not above 1000 nM.

`Cc1cc(C2(c3cc(C)c(O)c(C)c3)C(=O)N(Cc3cccc(C)c3F)c3ccccc32)cc(C)c1O` [Example 70, 1-(2-Fluoro-3-methyl-benzyl)-3,3-bis-(4-hydroxy-3,5-dimethyl-phenyl)-1,3-dihydro-indol-2-one]: the Ki was not above 500 nM.

As to `Cc1cc(C2(c3cc(C)c(O)c(C)c3)C(=O)N(Cc3ccc([N+](=O)[O-])o3)c3ccccc32)cc(C)c1O` [Example 73, 3,3-Bis-(4-hydroxy-3,5-dimethyl-phenyl)-1-(5-nitro-furan-2-ylmethyl)-1,3-dihydro-indol-2-one], the Ki is not above 500 nM.

`Cc1cc(C2(c3cc(C)c(O)c(C)c3)C(=O)N(Cc3ccc(OCc4ccccc4)cc3)c3ccccc32)cc(C)c1O` [Example 74, 1-(4-Benzyloxy-benzyl)-3,3-bis-(4-hydroxy-3,5-dimethyl-phenyl)-1,3-dihydro-indol-2-one]: the Ki is not above 1000 nM.

Consider `Cc1cc(C2(c3cc(C)c(O)c(C)c3)C(=O)N(Cc3c(F)cccc3Cl)c3ccccc32)cc(C)c1O` [Example 76, 1-(2-Chloro-6-fluoro-benzyl)-3,3-bis-(4-hydroxy-3,5-dimethyl-phenyl)-1,3-dihydro-indol-2-one], for which the Ki is not above 500 nM.
